SMILES strings stand for the structures. “And” between values parts separate entries of the source, which are not always exact repeats. Equal values may be shown once.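 Cultured in 96-well plates, cells were exposed to test compound for 48 hours across five concentrations. GI50 = concentration required for 50% inhibition of growth. Definition used: TGI = concentration required for complete inhibition of growth.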

Here are results for 9 compounds from PubChem BioAssay (NCI).

Some test systems named below: 786-0 renal; COLO 205 colon; HOP-62 NSCLC; MDA-MB-231 breast; MOLT-4 leukemia; NCI-H226 lung; NCI-H460 lung; SK-OV-3 ovarian; UACC-257 melanoma; UACC-62 melanoma.
Holding throughout (assay): NCI-60 cell line screen, 48 h

In the case of `CC1OC(OC2C[C@](O)(C(=O)CF)Cc3c(O)c4c(c(O)c32)C(=O)c2ccccc2C4=O)CC(N)C1O` (some centres not stated), the TGI in the assay on 786-0 renal is 0.173 µM; in the assay on COLO 205 colon, 0.266 µM; in the assay with HOP-62 NSCLC, 0.0462 µM; in the assay with MDA-MB-231 breast it was 0.283 µM; with MOLT-4 leukemia it was 0.0101 µM; in the assay on NCI-H226 lung it was < 0.0171 µM. In addition, the TGI in the assay on NCI-H460 lung amounted to 0.031 µM; in the assay with SK-OV-3 ovarian it was 1.04 µM; in the assay on UACC-257 melanoma, 1.21 µM; with UACC-62 melanoma it was 0.117 µM.

Consider `CCC1CN2C(=N1)c1ccccc1-c1cc(Cl)ccc12` (configuration not stated), for which the GI50 was 3.32 µM in the assay on 786-0 renal; 3.21 µM in the assay with COLO 205 colon; 2.97 µM in the assay on HOP-62 NSCLC; 3.4 µM with MDA-MB-231 breast; 2.51 µM with MOLT-4 leukemia; 1.81 µM with NCI-H226 lung. Moreover, the GI50 in the assay on NCI-H460 lung is 2.15 µM; with SK-OV-3 ovarian, 4.27 µM; in the assay on UACC-257 melanoma, 2.96 µM; in the assay on UACC-62 melanoma, 1.76 µM. The TGI was determined as 13 µM with 786-0 renal; 12.6 µM in the assay on COLO 205 colon; 8.87 µM with HOP-62 NSCLC; 25.4 µM in the assay on MDA-MB-231 breast; 7.16 µM with MOLT-4 leukemia; 4.86 µM in the assay with NCI-H226 lung. The TGI with NCI-H460 lung stood at 10.5 µM; in the assay with SK-OV-3 ovarian, 24.6 µM; in the assay on UACC-257 melanoma, 10.3 µM; in the assay on UACC-62 melanoma, 5.17 µM.

In the case of `Cc1cc(Cl)ccc1Nc1nc(C(F)(F)F)ccc1C(=O)N/N=C/c1ccc(Cl)cc1`, the GI50 was 2.04 µM in the assay on 786-0 renal; 1.63 µM in the assay on COLO 205 colon; 2.33 µM with HOP-62 NSCLC; 1.09 µM with MDA-MB-231 breast; 0.75 µM in the assay with MOLT-4 leukemia; 1.21 µM in the assay with NCI-H226 lung. In addition, the GI50 was 2.37 µM with NCI-H460 lung, 1.69 µM in the assay on SK-OV-3 ovarian, 3.67 µM with UACC-257 melanoma and 2.14 µM in the assay with UACC-62 melanoma. The TGI with 786-0 renal was 5.74 µM; with COLO 205 colon it was 3.37 µM; in the assay on HOP-62 NSCLC, 9.22 µM; in the assay with MDA-MB-231 breast it was 4.22 µM; in the assay on MOLT-4 leukemia, 4.35 µM; in the assay on NCI-H226 lung, 3.82 µM. For the same compound, the TGI in the assay with NCI-H460 lung worked out at 9.08 µM; with SK-OV-3 ovarian, 5.57 µM; in the assay on UACC-257 melanoma, 16.3 µM; in the assay with UACC-62 melanoma, 5.33 µM.

With `COc1ccc(/C=C/C(=O)c2ccc(O)c(CN3CCN(c4cc5c(cc4F)c(=O)c(C(=O)O)cn5C4CC4)CC3)c2)cc1`, the GI50 was 0.854 µM in the assay with 786-0 renal; 11.8 µM in the assay on COLO 205 colon; 1.97 µM in the assay on HOP-62 NSCLC; 2.19 µM in the assay on MDA-MB-231 breast; 5.29 µM in the assay on MOLT-4 leukemia; 3.75 µM in the assay on NCI-H226 lung. Also, the GI50 was 6.08 µM in the assay with NCI-H460 lung, 2.56 µM in the assay on SK-OV-3 ovarian, 2.17 µM in the assay with UACC-257 melanoma and 1.32 µM with UACC-62 melanoma. In addition, the TGI with 786-0 renal was > 100 µM; in the assay on COLO 205 colon, 33.4 µM; with HOP-62 NSCLC, > 100 µM; in the assay with MDA-MB-231 breast it was 13 µM; with MOLT-4 leukemia it was > 100 µM; in the assay on NCI-H226 lung, > 100 µM. The TGI is > 100 µM in the assay with NCI-H460 lung, 43.2 µM in the assay on SK-OV-3 ovarian, 69.9 µM in the assay on UACC-257 melanoma and > 100 µM in the assay with UACC-62 melanoma.

Consider `C#CC1(O)C(COP(=O)(O)OC(COCCCCCCCCCCCCCCCCCC)COP(=O)(O)OCC2OC(n3cc(F)c(=O)[nH]c3=O)CC2O)OC(n2ccc(N)nc2=O)C1O` (configuration not stated), for which, in the assay with 786-0 renal, the GI50 was 0.547 µM. For the same compound, the TGI with 786-0 renal was > 100 µM; in the assay with COLO 205 colon it was 1.99 µM and 6.07 µM; in the assay with HOP-62 NSCLC, > 86.5 µM and 33.9 µM; in the assay with MDA-MB-231 breast, 26.7 µM and 31.1 µM; in the assay on MOLT-4 leukemia it was > 100 µM; in the assay on NCI-H226 lung, 23.5 µM and 26 µM. For the same compound, the TGI was 15.3 µM and 15.1 µM with NCI-H460 lung; 16.2 µM and > 100 µM in the assay on SK-OV-3 ovarian; 97.5 µM and 55.8 µM with UACC-257 melanoma; 11.8 µM and 7.46 µM in the assay with UACC-62 melanoma.

As to `O=C(O)c1cc2ccc3ccccc3c2oc1=O`, the TGI with 786-0 renal, in the assay with COLO 205 colon, in the assay with HOP-62 NSCLC, in the assay on MDA-MB-231 breast, in the assay on MOLT-4 leukemia and in the assay with NCI-H226 lung was > 100 µM throughout. Moreover, the TGI in the assay with NCI-H460 lung, in the assay on SK-OV-3 ovarian, with UACC-257 melanoma and in the assay on UACC-62 melanoma was > 100 µM each time.

`CNC(=O)c1cccc2cc(Oc3ccnc4cc(OCC5(N)CC5)c(OC)cc34)ccc12`: the GI50 in the assay with 786-0 renal was 2.82 µM; in the assay on COLO 205 colon it was 8.66 µM; with HOP-62 NSCLC it was 10.7 µM; with MDA-MB-231 breast, 9.79 µM; in the assay on MOLT-4 leukemia, 3.49 µM; in the assay with NCI-H226 lung it was 1.02 µM. Further, the GI50 was 5.12 µM in the assay on NCI-H460 lung, 12.1 µM in the assay on SK-OV-3 ovarian, 16.5 µM in the assay on UACC-257 melanoma and 4.03 µM with UACC-62 melanoma. The TGI with 786-0 renal was 10.1 µM; with COLO 205 colon, 23.7 µM; in the assay on HOP-62 NSCLC it was 27.6 µM; with MDA-MB-231 breast, 27.9 µM; with MOLT-4 leukemia it was 21.6 µM; in the assay with NCI-H226 lung, 23.2 µM. Also, the TGI with NCI-H460 lung was determined as 18.1 µM; with SK-OV-3 ovarian, 26.3 µM; with UACC-257 melanoma, 32.2 µM; with UACC-62 melanoma, 15.9 µM.

Turning to `O=c1cc(-c2ccccc2F)[nH]c2ccc(N3CCCC3)cc12`, the GI50 in the assay with 786-0 renal is < 0.001 µM; with COLO 205 colon, < 0.001 µM; with HOP-62 NSCLC it was < 0.001 µM; in the assay on MDA-MB-231 breast it was > 100 µM; in the assay on MOLT-4 leukemia, < 0.001 µM; with NCI-H226 lung, < 0.001 µM. For the same compound, the GI50 in the assay with NCI-H460 lung, in the assay with SK-OV-3 ovarian and with UACC-62 melanoma was < 0.001 µM in each case. Also, the TGI in the assay on 786-0 renal was > 100 µM; in the assay on HOP-62 NSCLC, > 100 µM; in the assay with MDA-MB-231 breast, > 100 µM; with MOLT-4 leukemia, > 100 µM; in the assay with NCI-H226 lung, 0.0215 µM; with UACC-257 melanoma it was > 100 µM. Further, the TGI in the assay with UACC-62 melanoma was > 100 µM.

Consider `O=S(=O)(Nc1ccc(Br)c(Cl)c1)c1ccc(-c2cnc(C3CC3)o2)cc1`, for which the GI50 in the assay on 786-0 renal is 0.574 µM; with COLO 205 colon, 0.765 µM; in the assay with HOP-62 NSCLC it was 0.58 µM; in the assay on MDA-MB-231 breast it was 1.91 µM; with MOLT-4 leukemia it was 0.688 µM; with NCI-H226 lung, 1.23 µM. Besides, the GI50 is 0.415 µM in the assay on NCI-H460 lung, 1.49 µM in the assay on SK-OV-3 ovarian, 2.08 µM in the assay on UACC-257 melanoma and 0.372 µM in the assay with UACC-62 melanoma. In addition, the TGI with 786-0 renal was 17.9 µM; in the assay with COLO 205 colon, 11.3 µM; with HOP-62 NSCLC, 19 µM; with MDA-MB-231 breast, 16.4 µM; in the assay on MOLT-4 leukemia, > 50.4 µM; in the assay on NCI-H226 lung, 18.8 µM. The TGI in the assay with NCI-H460 lung was 12.6 µM; in the assay on SK-OV-3 ovarian, 24.2 µM; in the assay on UACC-257 melanoma, 25.9 µM; with UACC-62 melanoma it was 13.6 µM.
